From US8299040B2, “Methods for treating cancer targeting transglutaminase” (Board of Regents, The University of Texas System, priority 2006, dated 2012)
“Also recorded” adds a separate entry of the source.

Experiments:
NF-κB [1] = assay: NF-κB activation by EMSA, Panc28 cells; format: cell-based, human; conditions: for effect on A23187-induced activation of NF-κB: Panc28
Protocol: (§1) To assess NF-κB activation, electrophoretic mobility shift assay (EMSA) was performed as described previously. Briefly, nuclear extracts prepared from cells (1×10^6/ml) were incubated with a ^32P end-labeled 45-mer double-stranded NF-κB oligonucleotide (15 μg of protein with 16 fmol of DNA) from the human immunodeficiency virus long terminal repeat, 5′-[…] […] CGCTG […] […]-3′ (boldface indicates NF-κB binding sites) (SEQ ID NO:17), for 30 minutes at 37° C., and the DNA-protein complex formed was separated from free oligonucleotide on 6.6% native polyacrylamide gels. A double-stranded mutated oligonucleotide, 5′-[…] […] CGCTG […] […]-3′ (SEQ ID NO:18), was used to examine the specificity of binding of NF-κB to the DNA. The specificity of binding was also examined using competition with the unlabeled and mutated oligonucleotides. For supershift assays, nuclear extracts were incubated with antibodies against either the p50 or the p65 subunit of NF-κB for 30 minutes at 37° C. before the complex was analyzed using EMSA.

NF-κB [2] = assay: NF-κB activation by EMSA, BxPc3 cells; format: cell-based, human; conditions: 1 μM or 2 μM, 24 hours
Protocol: as §1

NF-κB [3] = assay: NF-κB-dependent SEAP reporter gene assay, MCF-7/WT cells; format: cell-based, human
Protocol: (§2) NF-κB dependent reporter gene transcription was analyzed using secretory alkaline phosphatase (SEAP) assay as described previously. Briefly, Panc28 and MCF-7 cells (5×10^5 cells/well in a six-well plate) were transiently transfected by the calcium phosphate method in a 1 ml medium containing 0.5 μg of NF-κB promoter DNA, linked to the heat-stable SEAP gene or with the control plasmid pCMV-FLAG1 DNA. Transfected cells were either left untreated or treated with 1 μM A23187 (Sigma-Aldrich), 1 mM BPA, or 1 nM tumor necrosis factor (TNF)-α (Genentech, South San Francisco, Calif.). Twenty-four hours after treatment, the conditioned medium was removed and assayed for SEAP activity according to the manufacturer's instructions (Clontech Laboratories, Mountain View, Calif.) using an automated microplate reader (PerkinElmer, Wellesley, Mass.). In some experiments cells were co-transfected with dominant-negative construct of IκBα along with NF-κB reporter gene.

NF-κB [4] = assay: NF-κB-dependent SEAP reporter gene assay, Panc28 cells; format: cell-based, human
Protocol: as §2

NF-κB [5] = assay: NF-κB activation by EMSA, MCF-7 cells; format: cell-based, human; conditions: MCF-7 cells (lack TG2)
Protocol: as §1

VEGF, pAkt (ser473) = assay: VEGF and pAkt expression in Panc-28 tumors; parameters: species or system nude mice; conditions: mouse, in vivo
Protocol: Pancreatic tumor tissue samples obtained from control and experimental mice were minced and incubated on ice for 30 min in 0.5 ml of ice-cold lysate buffer (20 mmol/L Tris-HCl, pH 7.4, containing 10% NP-40, 5 mol/L NaCl, 1 mol/L HEPES, 0.5 mol/L EDTA, 0.1 mol/L phenylmethylsulfonyl fluoride, 0.2 mol/L sodium orthovanadate, 1 mol/L NaF, 2 μg/ml aprotinin, and 2 μg/ml leupeptin). The minced tissue was homogenized using a Dounce homogenizer and centrifuged at 16,000×g at 4° C. for 10 min. Fifty micrograms of total protein from each sample was then fractionated using sodium dodecyl sulfate-polyacrylamide gel, electrotransferred onto nitrocellulose membranes, blotted with appropriate antibodies, and antigen antibody reaction detected using enhanced chemiluminescence (Amersham Pharmacia Biotech, Piscataway, N.J.). […] The protein bands obtained were quantified using the AlphaEase FC (Fluor Chem 8900) software program (Alpha Innotech, San Leandro, Calif.).
Tissue microarray slides constructed using 65 formalin-fixed patient tumor samples and 9 normal pancreatic tissue samples were used for this study. […] TG2 protein expression in these tumor samples and xenograft tumors from siRNA treated mice was evaluated immunohistochemically using the Vectastatin Elite ABC immunostaining kit (Vector Laboratories, Burlingame, Calif.) as described previously (12). […]

Panc-28 tumors [6] = assay: TUNNEL assay of apoptosis in Panc-28 tumors; format: in vivo, nude mice
Protocol: Terminal deoxynucleotidyl transferase mediated […] nick end labeling (TUNNEL) assay (Roche Molecular Biochemicals, Mannhein, Germany) of frozen sections to detect apoptotic cells was performed according to the manufacturer's protocol. The apoptotic fluorescence-positive cells were counted under a microscope and expressed as the percentage of total cells±SE. Ten fields in three tumors per treatment group were examined.

MiaPaCa-2 cells = assay: Gemcitabine cytotoxicity, MTS assay, MiaPaCa-2; format: cell-based; conditions: Homo sapiens, MIA PaCa-2, 72 hours
Protocol: (§3) The number of viable cells remaining after the appropriate treatment was determined by measuring their ability to reduce 3-(4,5-dimethylthiazol-2-yl)-5-(3-carboxymethoxyphenyl)-2H-tetrazolium (MTS) into a soluble formazan in accordance with the manufacturer's instructions. Logarithmically growing cells were plated at 2×10^3 cells per well in 96-well plates and allowed to adhere overnight. […] Each experiment was repeated three times in triplicate. […] Under identical conditions, the cells were trypsinized, and the cell viability was determined with a trypan blue exclusion test to confirm the MTS results.

Panc-28 tumors [7] = assay: Orthotopic Panc-28 PDAC tumor model: tumor growth and metastasis; format: in vivo, nude (nu/nu) mice; conditions: vs control siRNA group, end of treatment
Source text: Panc-28 cells were stably transduced with the firefly luciferase gene as described previously (23). Luciferase-infected Panc-28 cells were harvested from subconfluent cultures after brief exposure to 0.25% trypsin and 0.2% EDTA. Trypsinization was stopped with the medium containing 10% fetal bovine serum. The cells were washed once in serum-free medium and resuspended in PBS. Single cell suspensions with >90% cell viability were used for implantation into the mice. Animals were anesthetized using intraperitoneal injection of 200 μl ketamine (100 mg/kg) and xylazine (5-10 mg/kg). […] The incision was closed in a single layer using sterile surgical Autoclips (Braintree Scientific, Braintree, Mass.), antibacterial mycotic cream was applied to the wound and the animal was placed on a heating pad to maintain body temperature and closely monitored until conscious.
Tumor growth in the mice after tumor-cell implantation was monitored weekly using a noninvasive bioimaging technique. […] Ten minutes after injection, each mouse was placed in the right lateral decubitus position, and bioluminescence was measured using a cryogenically cooled IVIS imaging system coupled with a data acquisition computer running LivingImage software (Xenogen Corp., Alameda, Calif.). […] The signal intensity was quantified as the sum of all detected photons within the region of interest per second per cm^2 per steridian. […]

Panc-28 cells = assay: Gemcitabine cytotoxicity, MTS assay, Panc-28; format: cell-based; conditions: Homo sapiens, 72 hours
Protocol: as §3

Panc-28 tumors [8] = assay: Ki-67 proliferation staining of Panc-28 tumors; parameters: species or system nude mice; conditions: mouse, in vivo
Source text: Ki-67 staining was used to evaluate the proliferation index of in vivo growing xenografts and expressed as the number of Ki-67^+ cells±standard error (SE) as determined by counting 10 random microscopic fields for three different tumor samples per treatment group.

BxPC-3 cells = assay: Gemcitabine cytotoxicity, MTS assay, BxPC-3; format: cell-based; conditions: Homo sapiens
Protocol: as §3

Panc-28 tumors [9] = assay: Microvessel density (CD31) in Panc-28 tumors; format: in vivo, nude mice; conditions: CD31 staining
Source text: A rat anti-mouse CD31 monoclonal antibody was used to determine the microvessel density in xenografts. The CD31 stained slides were observed under a Leica DM4000B fluorescence microscope (Leica Microsystems Inc, Bannockburn, Ill.) equipped with SPOT-RTKE digital camera (Diagnostic instruments, Sterling Heights, Mich.) and the images were acquired and stored using SPOT advanced software (Diagnostic instruments, Sterling Heights, Mich.). The stored images were processed using NIH ImageJ software. The vessel density in each image was estimated by setting a minimum threshold of 4 pixel^2. Setting a minimum threshold enables to avoid the background non-specific staining and to eliminate the fluorescence signal from single endothelial cell. Results were expressed as the mean number of vessels±SE per high power field (HPF, 100× magnification). A total of 20 random HPFs were examined and counted in four different tumor samples from each treatment group.

Question: With `CNc1ccc2oc(C[C@H]3O[C@@]4(CC[C@H]3C)O[C@H]([C@H](C)C(=O)c3ccc[nH]3)[C@H](C)C[C@H]4C)nc2c1C(=O)O` [A23187] as the molecule, how does the “basal TG2 activity and constitutive NF-κB activation” value (NF-κB [1]; Panc28 cells) read?
Answer: The value was “could be further induced”.

Question: What about the NF-κB activation (NF-κB [2]) of the same molecule?
Answer: Its NF-κB activation is “strong activation of NF-κB”.

Question: And the “A23187-induced SEAP activity” value (NF-κB [3])?
Answer: The value was “No basal or A23187-induced activity of SEAP”.

Question: And the “SEAP expression in response to A23187” value (NF-κB [4]; Panc28, 1 µM for 24 hours)?
Answer: Its value is “did not increase further”.

Question: And the NF-κB activation (NF-κB [5])?
Answer: The NF-κB activation was “failed to show an increase in NF-κB activation”.

Question: How did the inhibition at 1000 µM (NF-κB [1]; Homo sapiens, Panc28, 1 mM for 24 hours, read-out: inhibition of constitutive activation of NF-κB) turn out when `NCCCCCNC(=O)CCCC[C@@H]1SC[C@@H]2NC(=O)N[C@@H]21` [BPA, 5-(biotinamido) pentylamine] was run?
Answer: The inhibition at 1000 µM was roughly 70%.

Question: And the “effect on A23187-induced activation of NF-κB” value (NF-κB [1])?
Answer: The value was “failed to further augment A23187-induced activation of NF-κB”.

Question: What about the “inhibition of TNF-α-induced SEAP expression” value (NF-κB [3]; BPA 1 mM) of the same molecule?
Answer: Its value is “not by BPA”.

Question: What about the “inhibition of SEAP expression” value (NF-κB [4]; Panc28, P<0.002) of the same molecule?
Answer: Its value is “significantly inhibited”.

Question: What does the source list for `CN(C)c1cccc2c(S(=O)(=O)NCCCCCN)cccc12` [MDC, monodansylcadaverine]?
Answer: inhibition at 50 µM (NF-κB [1]; Homo sapiens, Panc28, 50 μM, 24 hours): ~60%; effect on A23187-induced activation of NF-κB (NF-κB [1]): blocked A23187-induced activation

Question: With `Nc1ccn([C@@H]2O[C@H](CO)[C@@H](O)C2(F)F)c(=O)n1` [gemcitabine] as the molecule, how does the “pAkt (serine 473) in tumors” value (VEGF, pAkt (ser473)) read?
Answer: The value was “no significant changes in NF-κB activity or pAkt levels”.

Question: And the “apoptotic cells in tumors” value (Panc-28 tumors [6])?
Answer: The value was “significant increases in the numbers of apoptotic cells”.

Question: What about the IC50 (MiaPaCa-2 cells) of the same molecule?
Answer: Its IC50 is 0.1 µM.

Question: And the metastasis score (Panc-28 tumors [7])?
Answer: Its metastasis score is “completely ineffective in inhibiting metastasis; also recorded: no decreases in the metastasis score”.

Question: What about the IC50 (Panc-28 cells) of the same molecule?
Answer: Its IC50 is 1 µM.

Question: What about the Ki-67 staining (Panc-28 tumors [8]) of the same molecule?
Answer: Its Ki-67 staining is “high levels of Ki-67 staining”.

Question: And the IC50 (BxPC-3 cells; BxPC-3 cells (TG2-deficient), 72 hours)?
Answer: Its IC50 is 0.01 µM.

Question: And the IC50 (BxPC-3 cells; BxPC-3 cells infected with TG2wt adenoviral construct, data not shown)?
Answer: Its IC50 is 0.1 µM.

Question: What about the “mean blood vessel / microvascular density” value (Panc-28 tumors [9]) of the same molecule?
Answer: The value was “significant decrease in the mean blood vessel density”.

Question: How did the SEAP reporter expression (NF-κB [3]; TNF 1 nM, fold over non-transfected control) turn out when TNF-α was run?
Answer: Its SEAP reporter expression is 14 fold.
